In brackets after ≈: the same amount, converted by molar mass.
What was measured:
[1] = system: Enterococcus hirae (ATCC #10541); experiment: Antimicrobial Activity Assay; type: cell-based
Experimental: The overnight growth was then diluted into growth media to make a single solution of E. hirae with a final optical density at 600 nm=0.02 AU. A 20 mM stock solution of Thiostrepton in DMSO was made and used to make multiple dilutions of TS in DMSO. Each TS dilution (0.1 mL) was then added to a test tube containing 10 mL of the diluted E. hirae and grown at 37° C. overnight while shaking at 180 rpm. The next morning, each tube was visually inspected to determine if the cells grew. Final concentrations tested were 0.120, 0.090, 0.075, 0.060, 0.045, 0.030, and 0.015 μM TS. […] Three replicates were made on three separate days (n=9). […] For TS analogs, the dilute E. hirae was treated with 20 µM final concentration of each analog (three replicates each). […] DMSO was used as a positive control (complete cell growth) and 20 µM thiostrepton was used as a negative control.

[2] = system: human SK-OV-3 ovarian cancer cells; experiment: Cellular Activity Assay (cytotoxicity, crystal violet); type: cell-based; conditions: SK-OV-3 cells, 48 hr treatment
Excerpt: (§1) To test the activity of compounds, two complimentary assays were used as described below. The Biochemical PRX3 Inhibition Assay tests the ability of each compound to crosslink PRX3 in a simple, in vitro system. In the Cellular Activity Assay, we are testing the ability of compounds to kill SK-OV-3 ovarian cancer cells.
The Cellular Activity Assay measures the EC50 of each compound in human SK-OV-3 ovarian cancer cells TS to be taken into the cell, transported to the mitochondria, and crosslink PRX3.
The cytotoxicity of compounds was measured as described in Nelson et al. (2021) Antioxidants (Basel) 10, 150; Cunniff et al. (2015) PloS one 10, e0127310; and Newick et al. (2012) PloS one 7, e39404. SK-OV-3 is an adherent, epithelial, adenocarcenoma cell line obtained from ATCC (ref #: HTB-77). SK-OV-3 cells are resistant to the commonly used chemotherapeutics, cis-platinum and doxorubicin. For this PRX3 crosslinking assay, SK-OV-3 cells were plated in a 96-well plate. After 24 h recovery, the cells were treated for 48 hr with multiple concentrations of each compound ranging from 0.1-100 μM.
Cells were washed with PBS to remove dead cells and the remaining live cells were fixed with 3.0% formaldehyde and stained with 0.1% crystal violet. The amount of crystal violet was determined by reading the absorbance at 540 nm (crystal violet dye dissolved in 100% methanol) using a plate reader. The signal for crystal violet dye is proportional to the biomass of remaining live cells. GraphPad Prism9 software was used to calculate the effective inhibitory concentration (EC50) of test compounds. Results for each compound, are normalized to the amount of cells in control wells treated with the equivalent concentration of DMSO (negative control). TS or Compound B were included in each set of assays as a positive control.

578 cancer cells lines = conditions: of 578 cancer cells lines tested; cited from earlier work
Solubility Assay = type: physicochemical; conditions: 20 mM HEPES, 100 mM NaCl, pH 7.5, 18-24 hours at ambient temperature
Experimental: A 20 mM stock solution was made for each compound in DMSO. To measure solubility, 0.03-0.05 mL of the stock was added to 0.27 mL 20 mM HEPES, 100 mM NaCl, pH 7.5. The solution was mixed and rotated 18-24 hours at ambient temperature. The next day, solutions were centrifuged for 10 min at 20,000×g at 24° C. to remove insoluble, solid material. Next, 100 μL of the supernatant containing the soluble compound was added to 900 μL DMSO and High Performance Liquid Chromatography was performed as described in Table 1 and either HPLC gradient 1 (Table 2) for HPLC gradient 2 (Table 3). For each analog, a 200 μM standard and a 20 μM standard were prepared and run in parallel (standards were dissolved completely in 100% DMSO). The amount of compound in the experimental sample was calculated by comparing the area under the curve for compound peak to the area for the closest standard and correcting for dilution.

purified human PRX3 = biological target: T1, purified human PRX3 (Homo sapiens, UniProt P30048); experiment: Biochemical PRX3 Inhibition Assay (crosslink by SDS-PAGE, mono-adduct by MALDI-TOF MS); conditions: 1-2 hr at 37° C.
T1 construct: made in house
T1 sequence (P30048 62-256): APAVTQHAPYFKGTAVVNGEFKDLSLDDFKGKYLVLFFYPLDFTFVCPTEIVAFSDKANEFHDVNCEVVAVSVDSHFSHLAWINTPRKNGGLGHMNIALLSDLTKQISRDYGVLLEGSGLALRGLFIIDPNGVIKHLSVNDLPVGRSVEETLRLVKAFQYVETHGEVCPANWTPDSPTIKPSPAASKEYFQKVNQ
Experimental: as §1
This assay tests the ability of each compound to form a covalent adduct with PRX3. The assay is performed as described in Nelson et al. (2021) Antioxidants (Basel) 10, 150; and Cunniff et al. (2015) PloS one 10, e0127310, and follows the appearance of non-reducible PRX3 crosslinks by SDS PAGE gel electrophoresis and follows the appearance of single PRX3 adducts by mass spectrometry. For this assay, purified human PRX3, hydrogen peroxide (the PRX3 substrate) and all the components required to enable PRX3 to catalytically cycle (thioredoxin-thioredoxin reductase-NAPDH system) are included (details below).
The biochemical PRX3 Inhibition assay contains 100 µM PRX3, 50 µM human TRX2, […] mouse thioredoxin reductase, and a NADPH regenerating system composed of 3.2 mM glucose 6-phosphate, 3.2 U/ml glucose 6-phosphate dehydrogenase and 0.4 mM NADPH. Samples are incubated for 1-2 hr at 37° C. with either 0.2 mM TS (positive control), compounds or an equivalent volume of DMSO (negative control). During this incubation, hydrogen peroxide is added to induce turnover of PRX3. Reactions are stopped by the addition of a buffer containing 100 mM dithiolthreitol (to break disulfide bonds) and SDS (detergent to denature proteins). NADPH, Glucose 6-Phosphate, and glucose 6-phosphate dehydrogenase were purchased from Sigma Aldrich. PRX3, thioredoxin, and thioredoxin reductase were all purified to >98% purity in the Lowther laboratory according to protocols referenced in Nelson et al. (2021) Antioxidants (Basel) 10, 150; and Cunniff et al. (2015) PloS one 10, e0127310.
To measure the amount of PRX3 crosslink, proteins in the reaction were separated by SDS-polyacrlyamide gel electrophoresis and stained for total protein using GelCode Blue (Life Technologies). The amount of unmodified PRX3 and TS-PRX3 crosslink was measured by densiometric analysis of the signal for the PRX3 band running at the MW of a PRX3 crosslink (−46 kDa) compared to the PRX3 signal at the MW of the un-modified PRX3 (˜23 kD).
To measure covalent adduct formation on a single PRX3 monomer, each reaction was exchanged into a mass spectrometry compatible buffer containing 40 mM ammonium citrate, pH 8.3 made in HPLC water. Sample was mixed 1:1 with a matrix solution containing 30 mg/mL sinapinic acid in 70% (vol/vol) acetonitrile, 0.2% formic acid and spotted to onto the sample plate. PRX3 mass was measured by MALDI-TOF MS analysis on a Bruker Daltonics MALDI-TOF MS spectrometer. Spectra were analyzed in FLEXAnalysis Software. The intensity of the reduced PRX3 peak (SH) and intensity of the analog adduct peak was determined and corrected for background signal at the adduct peak in the DMSO control. The fraction of single analog adduct in the monomer peak was determined by dividing the intensity of the adduct peak by the summed intensity of the SH and adduct peaks.

[3] = E. hirae, overnight at 37° C., n=9

C=C(NC(=O)C(=C)NC(=O)c1csc(C2=N[C@@H]3c4csc(n4)[C@H]4NC(=O)c5csc(n5)[C@H]([C@](C)(O)[C@@H](C)O)NC(=O)[C@H]5CSC(=N5)/C(=C/C)NC(=O)[C@H]([C@@H](C)O)NC(=O)c5csc(n5)[C@]3(CC2)NC(=O)[C@H](C)NC(=O)C(=C)NC(=O)[C@H](C)NC(=O)[C@H]([C@@H](C)CC)N[C@@H]2C=Cc3c([C@H](C)O)cc(nc3[C@H]2O)C(=O)O[C@@H]4C)n1)C(N)=O [Thiostrepton, reference compound]
TS concentrations at which complete growth was observed [1, 3]: ≤ 0.030 µM
TS concentrations at which no growth was observed [1, 3]: ≥ 0.045 µM
MIC ([1]; Enterococcus hirae, ATCC10541, read-out: Antimicrobial Activity): 0.02 to 0.2 µM (≈ 0.0333 to 0.333 µg/mL)
EC50 [2]: 1 to 10 µM
Number of tumor cells lines with meaningful efficacy (578 cancer cells lines): 403
solubility (Solubility Assay): + (<0.1 mM)
PRX3 Inhibition (Crosslink + Mono-adduct) (purified human PRX3): ++ (50-90%)

Source: patent publication US20260109695A1, “PEROXIREDOXIN 3 INHIBITORS AND METHODS OF USE FOR TREATING CANCER” (WAKE FOREST UNIVERSITY HEALTH SCIENCES, priority 2022, published 2026)
